According to ChEMBL document CHEMBL1201862, “PubChem BioAssay data set” (2004):
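Step 1: Grow cells in 96-well plates. Step 2: Expose to compound for 48 hours at 5 concentrations. Step 3: Interpolate endpoints linearly; if unreached, use highest concentration. The concentration for 50% growth inhibition is given as GI50.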 Activity calls are given as the source filed them. Cut-off read from the data, not from the text of the source: active = GI50 up to about 1.1 µM and inactive = higher.

Key:
Experiment in all cases: growth of human tumour cells (NCI), 48 h
786-0 = tested on: 786-0
CAKI-1 = tested on: CAKI-1
COLO 205 = tested on: COLO 205
DMS-114 = tested on: DMS-114
DMS-273 = tested on: DMS-273
HCT-116 = tested on: HCT-116
HOP-18 = tested on: HOP-18
HT-29 = tested on: HT-29
KM-20L2 = tested on: KM-20L2
LXFL 529 = tested on: LXFL 529
OVCAR-8 = tested on: OVCAR-8
SF-295 = tested on: SF-295
SN12C = tested on: SN12C
SNB-19 = tested on: SNB-19
UO-31 = tested on: UO-31
A498 = tested on: A498
DU-145 = tested on: DU-145
HCT-15 = tested on: HCT-15
MDA-MB-435 = tested on: MDA-MB-435
SK-MEL-2 = tested on: SK-MEL-2

| SMILES | GI50 (786-0) | GI50 (CAKI-1) | GI50 (COLO 205) | GI50 (DMS-114) | GI50 (DMS-273) | GI50 (HCT-116) | GI50 (HOP-18) | GI50 (HT-29) | GI50 (KM-20L2) | GI50 (LXFL 529) | GI50 (OVCAR-8) | GI50 (SF-295) | GI50 (SN12C) | GI50 (SNB-19) | GI50 (UO-31) | GI50 (A498) | GI50 (DU-145) | GI50 (HCT-15) [µM] | GI50 (MDA-MB-435) | GI50 (SK-MEL-2) |
| --- | --- | --- | --- | --- | --- | --- | --- | --- | --- | --- | --- | --- | --- | --- | --- | --- | --- | --- | --- | --- |
| Cc1c(C(=O)Nc2ccc(Cl)cc2)nc(N)nc1-c1cccc(Cl)c1 | > 100 µM (inactive) | 68.7 µM (inactive) | 77.3 µM (inactive) | 94.4 µM (inactive) | > 100 µM (inactive) | 57.3 µM (inactive) | > 100 µM (inactive) | 36.7 µM (inactive) | 45.4 µM (inactive) | > 10 µM (inactive) | > 100 µM (inactive) | > 100 µM (inactive) | > 100 µM (inactive) | > 100 µM (inactive) | > 100 µM (inactive) |  |  |  |  |  |
| C/C(=N\N=C(/S)N1CC2CCC(CC2)C1)c1cccc[n+]1[O-] | 6.9 µM (inactive) | 9.14 µM (inactive) | 3.66 µM (inactive) | 1.35 µM (inactive) | 2.62 µM (inactive) | 3.61 µM (inactive) | 30.3 µM (inactive) | 1.84 µM (inactive) | 1.52 µM (inactive) |  | 6.44 µM (inactive) | 4.43 µM (inactive) | 7.67 µM (inactive) | 9.08 µM (inactive) | 3.12 µM (inactive) | 18.3 µM (inactive) | 46.8 µM (inactive) | 1.8 | 28.5 µM (inactive) | 15.3 µM (inactive) |
| Cc1cc(O)nc(NNC(C#N)c2ccc([N+](=O)[O-])cc2)n1 (configuration not stated) | > 100 µM (inactive) | 33.4 µM (inactive) | > 100 µM (inactive) | 45.6 µM (inactive) | 91.4 µM (inactive) | 80.4 µM (inactive) | > 100 µM (inactive) | > 100 µM (inactive) | > 100 µM (inactive) | > 100 µM (inactive) | > 100 µM (inactive) | > 100 µM (inactive) | > 100 µM (inactive) |  | 47.5 µM (inactive) |  |  | > 100 |  | > 100 µM (inactive) |
| CC(=O)C1(O)CCC2(O)C3(O)CC=C4CC(O)CCC4(C)C3CC(OC(=O)c3ccc(O)cc3)C12C.COC1CC(OC2C(C)OC(OC3C(C)OC(OC4CCC5(C)C(=CCC6(O)C5CC(OC(=O)c5ccc(O)cc5)C5(C)C(O)(C(C)=O)CCC65O)C4)CC3OC)CC2OC)OC(C)C1O (configuration not stated) | 23.7 µM (inactive) |  | 26.9 µM (inactive) |  | 36.2 µM (inactive) | 10 µM (inactive) | 38.7 µM (inactive) | 31.4 µM (inactive) |  | 24.9 µM (inactive) | 29.9 µM (inactive) | 36 µM (inactive) | 31.3 µM (inactive) | 33.6 µM (inactive) | 18.3 µM (inactive) |  |  | 33.6 |  | 20.4 µM (inactive) |
| COC[C@@H](/N=C/N1CCc2cc(OC)c(OC)cc2[C@@H]1C)C(C)(C)C | > 100 µM (inactive) | > 100 µM (inactive) | > 100 µM (inactive) | > 100 µM (inactive) |  | > 100 µM (inactive) | > 100 µM (inactive) | 79.8 µM (inactive) | > 100 µM (inactive) | > 100 µM (inactive) | > 100 µM (inactive) | > 100 µM (inactive) | > 100 µM (inactive) | > 100 µM (inactive) | > 100 µM (inactive) |  |  | > 100 |  | 86.7 µM (inactive) |
| C=Cc1ccc(C)[n+](C[Si](C)(C)O[Si](C)(C)C[n+]2cc(C=C)ccc2C)c1 | > 100 µM (inactive) | > 100 µM (inactive) | > 100 µM (inactive) | > 100 µM (inactive) | > 100 µM (inactive) | > 100 µM (inactive) | > 100 µM (inactive) | > 100 µM (inactive) | > 100 µM (inactive) | > 100 µM (inactive) | > 100 µM (inactive) | > 100 µM (inactive) | > 100 µM (inactive) | > 100 µM (inactive) | > 100 µM (inactive) |  |  |  |  | > 100 µM (inactive) |
| Nc1ccccc1S(=O)(=O)N(CC(=O)O)c1ccccc1 | > 100 µM (inactive) | > 100 µM (inactive) | > 100 µM (inactive) |  | > 100 µM (inactive) |  | > 100 µM (inactive) | > 100 µM (inactive) | > 100 µM (inactive) | > 100 µM (inactive) | > 100 µM (inactive) |  | > 100 µM (inactive) | > 100 µM (inactive) | > 100 µM (inactive) | > 100 µM (inactive) |  | > 100 |  | > 100 µM (inactive) |
| C/C(=N\NC(=S)N1CCN(c2ccccn2)CC1)c1ccccn1 | 0.074 µM (active) | 0.0467 µM (active) | 0.00419 µM (active) | 0.0001 µM (active) | 0.00069 µM (active) | 0.00158 µM (active) |  | 0.0745 µM (active) | 0.000413 µM (active) | 0.000342 µM (active) | 0.00281 µM (active) | 0.00532 µM (active) | 0.0206 µM (active) | 0.27 µM (active) | 0.998 µM (active) | 0.853 µM (active) | 1.08 µM (active) | 0.0219 | 0.111 µM (active) | 1.25 µM (inactive) |
| COC(=O)C(=O)CC(=O)CCn1ncc(Cl)c(Cl)c1=O | 21.7 µM (inactive) | 5.78 µM (inactive) | 14.3 µM (inactive) | 3.15 µM (inactive) | 14.9 µM (inactive) | 15.1 µM (inactive) |  | 11.5 µM (inactive) | 16.9 µM (inactive) | 10 µM (inactive) | 13.3 µM (inactive) | 13.7 µM (inactive) | 16.9 µM (inactive) | 18.5 µM (inactive) | 18.1 µM (inactive) | 32.8 µM (inactive) |  | 4.14 |  | 18.1 µM (inactive) |
| Oc1cccnc1/C=N/OCc1ccccc1 | > 100 µM (inactive) | > 100 µM (inactive) | > 100 µM (inactive) | > 100 µM (inactive) | > 100 µM (inactive) | > 100 µM (inactive) |  | > 100 µM (inactive) | > 100 µM (inactive) | > 100 µM (inactive) | > 100 µM (inactive) | > 100 µM (inactive) | 97.1 µM (inactive) | > 100 µM (inactive) | 68.2 µM (inactive) | > 100 µM (inactive) |  | > 100 |  | > 100 µM (inactive) |
| CC(=O)NC(CCCCNCc1ccccc1)C(=O)NCc1ccccc1 (configuration not stated) | > 100 µM (inactive) | > 100 µM (inactive) | > 100 µM (inactive) | > 100 µM (inactive) | > 100 µM (inactive) | > 100 µM (inactive) |  | > 100 µM (inactive) | > 100 µM (inactive) | > 100 µM (inactive) | > 100 µM (inactive) | > 100 µM (inactive) | > 100 µM (inactive) | > 100 µM (inactive) | > 100 µM (inactive) | > 100 µM (inactive) |  | > 100 |  | > 100 µM (inactive) |
| Cc1ccccc1N(CCC#N)C1=NN(C(=O)CC(=O)Nc2ccc(Cl)cc2)C(c2ccccc2)C1 (configuration not stated) | > 100 µM (inactive) |  | > 100 µM (inactive) | > 100 µM (inactive) | > 100 µM (inactive) | > 100 µM (inactive) | > 100 µM (inactive) | > 100 µM (inactive) | > 100 µM (inactive) | > 100 µM (inactive) | > 100 µM (inactive) | > 100 µM (inactive) | > 100 µM (inactive) | > 100 µM (inactive) | > 100 µM (inactive) |  |  | > 100 |  | > 100 µM (inactive) |
